We go through 13 compounds from patent US7880007B2, “Bicyclic substituted phenyl piperidine modulators of muscarinic receptors” (Vertex Pharmaceuticals Incorporated, priority 2004, dated 2011).

Type in all cases: cell-based
The target in one experiment is T1, M3 muscarinic receptor (Homo sapiens, UniProt P20309).
T1 construct: expressed in transfected cells; host or cells: CHO (M3-CHO)
Kind of experiment: Functional mobilization of intracellular calcium (FLIPR), M3-CHO cells. The note with it: for Emax: 100% efficacy = maximum response obtained with the Carbachol control; for M3 Activity: M3-CHO cells, calcium mobilization (FLIPR). Summed up:
(§1)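 Calcium mobilisation read by FLIPR over 60 s (ex 488/em 540 nm) in recombinant muscarinic CHO lines loaded with calcium dye plus 1 mM probenecid. Compounds tested as agonists alone, or as inhibitors against EC80 carbachol after 15 min pre-incubation or co-addition; 0.5% DMSO; efficacy scaled to carbachol maximal response.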

Another experiment addresses T2, M1 muscarinic receptor (Homo sapiens, UniProt P11229).
T2 construct: expressed in transfected cells; host or cells: CHO (M1-CHO)
T2 sequence (P11229 1-460): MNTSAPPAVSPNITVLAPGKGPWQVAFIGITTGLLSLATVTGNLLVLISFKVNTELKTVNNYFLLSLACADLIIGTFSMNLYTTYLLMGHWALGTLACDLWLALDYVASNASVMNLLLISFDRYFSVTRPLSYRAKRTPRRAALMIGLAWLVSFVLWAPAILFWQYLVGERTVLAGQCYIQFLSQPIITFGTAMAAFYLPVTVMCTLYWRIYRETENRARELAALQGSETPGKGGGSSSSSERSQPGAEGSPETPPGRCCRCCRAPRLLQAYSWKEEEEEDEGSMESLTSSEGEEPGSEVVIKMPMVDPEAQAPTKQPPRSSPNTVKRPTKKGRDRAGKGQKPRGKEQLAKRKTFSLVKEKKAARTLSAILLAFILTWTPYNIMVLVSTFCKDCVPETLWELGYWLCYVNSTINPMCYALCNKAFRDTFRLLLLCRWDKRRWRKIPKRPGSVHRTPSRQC
Kind of experiment: Functional mobilization of intracellular calcium (FLIPR), M1-CHO cells. The note with it: for Emax: 100% efficacy = maximum response obtained with the Carbachol control; for M1 Activity: M1-CHO cells, calcium mobilization (FLIPR). Summed up: as §1

The target in a further experiment is T3, M4 muscarinic receptor (Homo sapiens, UniProt P08173).
T3 construct: expressed in transfected cells; host or cells: CHO (M4-CHO)
T3 sequence (P08173 1-479): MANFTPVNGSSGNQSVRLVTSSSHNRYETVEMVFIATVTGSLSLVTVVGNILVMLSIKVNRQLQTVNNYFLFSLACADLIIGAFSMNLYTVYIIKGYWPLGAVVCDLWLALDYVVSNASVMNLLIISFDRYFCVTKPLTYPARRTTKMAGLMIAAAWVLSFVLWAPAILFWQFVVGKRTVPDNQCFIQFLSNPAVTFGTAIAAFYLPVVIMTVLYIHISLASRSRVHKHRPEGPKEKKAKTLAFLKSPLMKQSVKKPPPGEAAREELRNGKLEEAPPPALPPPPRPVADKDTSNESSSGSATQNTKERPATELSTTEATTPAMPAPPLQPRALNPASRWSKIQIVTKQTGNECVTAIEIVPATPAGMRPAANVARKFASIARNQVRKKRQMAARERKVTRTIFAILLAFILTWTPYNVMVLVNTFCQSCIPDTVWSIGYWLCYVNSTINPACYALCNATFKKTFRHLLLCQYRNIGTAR
Kind of experiment: Functional mobilization of intracellular calcium (FLIPR), M4-CHO cells. To be noted: for Emax: 100% efficacy = maximum response obtained with the Carbachol control; for M4 Activity: M4-CHO cells, calcium mobilization (FLIPR). Summed up:
as §1

In the next experiment the target is T4, M2 muscarinic receptor (Homo sapiens, UniProt P08172).
T4 construct: expressed in transfected cells; host or cells: CHO (M2-CHO)
T4 sequence (P08172 1-466): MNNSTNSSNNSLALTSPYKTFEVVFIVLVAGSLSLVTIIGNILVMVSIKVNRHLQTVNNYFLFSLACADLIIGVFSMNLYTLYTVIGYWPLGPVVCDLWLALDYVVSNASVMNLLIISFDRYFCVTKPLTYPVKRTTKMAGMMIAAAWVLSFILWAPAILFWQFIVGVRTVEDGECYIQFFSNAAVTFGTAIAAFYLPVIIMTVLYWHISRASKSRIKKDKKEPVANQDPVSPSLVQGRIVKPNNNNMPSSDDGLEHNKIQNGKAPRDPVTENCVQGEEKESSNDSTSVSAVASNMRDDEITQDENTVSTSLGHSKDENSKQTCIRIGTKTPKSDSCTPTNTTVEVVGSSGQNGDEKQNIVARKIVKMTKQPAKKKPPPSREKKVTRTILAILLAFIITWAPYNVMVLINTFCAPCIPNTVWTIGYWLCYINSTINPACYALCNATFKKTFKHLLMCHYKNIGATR
Kind of experiment: Functional mobilization of intracellular calcium (FLIPR), M2-CHO cells. To be noted: for Emax: 100% efficacy = maximum response obtained with the Carbachol control; for M2 Activity: M2-CHO cells, calcium mobilization (FLIPR). In outline: as §1

T1 sequence (P20309 whole entry): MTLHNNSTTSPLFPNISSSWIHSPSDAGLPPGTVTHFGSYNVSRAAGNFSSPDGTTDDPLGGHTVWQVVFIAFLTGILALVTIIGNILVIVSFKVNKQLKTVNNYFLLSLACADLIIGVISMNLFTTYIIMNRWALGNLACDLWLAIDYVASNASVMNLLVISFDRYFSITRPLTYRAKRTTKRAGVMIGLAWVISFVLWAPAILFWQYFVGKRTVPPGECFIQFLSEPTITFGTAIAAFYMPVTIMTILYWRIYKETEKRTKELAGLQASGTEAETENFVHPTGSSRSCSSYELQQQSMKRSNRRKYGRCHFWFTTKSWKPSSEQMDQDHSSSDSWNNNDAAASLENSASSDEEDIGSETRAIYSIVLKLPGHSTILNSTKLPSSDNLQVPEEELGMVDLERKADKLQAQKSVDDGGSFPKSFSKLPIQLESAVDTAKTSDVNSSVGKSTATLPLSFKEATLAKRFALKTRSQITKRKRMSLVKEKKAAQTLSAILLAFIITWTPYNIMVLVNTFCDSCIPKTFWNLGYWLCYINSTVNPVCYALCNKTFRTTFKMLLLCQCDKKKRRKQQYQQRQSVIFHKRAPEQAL

For `CCOC(=O)N1CCC(CN2CCC(F)(c3cc(F)ccc3OC)CC2)CC1` [Compound 253], on M3 muscarinic receptor, the Emax is under 25% and the “M3 Activity” value was “+ (activity was measured to be greater than 5.0 μM)”. On M1 muscarinic receptor, the maximal response (Emax) fell in the range of 25 to 100% and the “M1 Activity” value was “+++ (activity was measured to be less than 1.0 μM)”. Also, at M4 muscarinic receptor, the maximal response (Emax) lay within 25 to 100% and the “M4 Activity” value is given as “+++ (activity was measured to be less than 1.0 μM)”. At M2 muscarinic receptor, the maximal effect (Emax) was under 25% and the “M2 Activity” value was “++ (activity was measured to be from 1.0 μM to 5.0 μM)”.
Take `CCOC(=O)N1C2CCC1CC(N1CCC(c3cc(-c4ccc(CC#N)cc4)ccc3OC)CC1)C2` (stereo not shown) [Compound 254]: at M3 muscarinic receptor, the Emax was under 25% and the “M3 Activity” value was “+ (activity was measured to be greater than 5.0 μM)”. Besides, on M1 muscarinic receptor, the Emax fell in the range of 25 to 100% and the “M1 Activity” value is reported as “+ (activity was measured to be greater than 5.0 μM)”. Further, on M4 muscarinic receptor, the maximal response (Emax) was in the range of 25 to 100% and the “M4 Activity” value is “++ (activity was measured to be from 1.0 μM to 5.0 μM)”. In addition, at M2 muscarinic receptor, the maximal response (Emax) is under 25% and the “M2 Activity” value is reported as “+ (activity was measured to be greater than 5.0 μM)”.
Turning to `COc1ccccc1C1CCN(C2CCC3CCCCC3C2)CC1` (stereo not shown) [Compound 255], on M3 muscarinic receptor, the maximum response (Emax) lay within 25 to 100% and the “M3 Activity” value is reported as “+ (activity was measured to be greater than 5.0 μM)”. On M1 muscarinic receptor, the Emax is 25 to 100% and the “M1 Activity” value is listed as “+ (activity was measured to be greater than 5.0 μM)”. For the same compound, at M4 muscarinic receptor, the maximum response (Emax) is 25 to 100% and the “M4 Activity” value is “++ (activity was measured to be from 1.0 μM to 5.0 μM)”. Also, at M2 muscarinic receptor, the Emax is under 25% and the “M2 Activity” value is on record as “+ (activity was measured to be greater than 5.0 μM)”.
For `COc1ccc(Cl)cc1C1(F)CCN(CC2CCCCC2)CC1` [Compound 257], at M3 muscarinic receptor, the maximal effect (Emax) is under 25% and the “M3 Activity” value is listed as “+ (activity was measured to be greater than 5.0 μM)”. Further, on M1 muscarinic receptor, the Emax is under 25% and the “M1 Activity” value was “+ (activity was measured to be greater than 5.0 μM)”. In addition, on M4 muscarinic receptor, the maximum response (Emax) is 25 to 100% and the “M4 Activity” value is given as “+ (activity was measured to be greater than 5.0 μM)”. Further, at M2 muscarinic receptor, the maximal response (Emax) is under 25% and the “M2 Activity” value is listed as “+ (activity was measured to be greater than 5.0 μM)”.
Take `CCS(=O)(=O)c1ccc(-c2ccc(OC)c(C3CCN([C@H]4C[C@H]5CC[C@H]4C5)CC3)c2)cc1` [Compound 258]: on M3 muscarinic receptor, the Emax was under 25% and the “M3 Activity” value is listed as “+ (activity was measured to be greater than 5.0 μM)”. For the same compound, at M1 muscarinic receptor, the Emax fell in the range of 25 to 100% and the “M1 Activity” value is listed as “+ (activity was measured to be greater than 5.0 μM)”. Besides, on M4 muscarinic receptor, the Emax is 25 to 100% and the “M4 Activity” value is reported as “++ (activity was measured to be from 1.0 μM to 5.0 μM)”. On M2 muscarinic receptor, the Emax is under 25% and the “M2 Activity” value is reported as “+ (activity was measured to be greater than 5.0 μM)”.
As to `Fc1ccccc1C1CCN(C2C[C@H]3CC[C@H]2C3)CC1` (stereo partly shown) [Compound 259], the Emax on M3 muscarinic receptor was under 25%; at M1 muscarinic receptor it was 25 to 100%; on M4 muscarinic receptor, 25 to 100%; at M2 muscarinic receptor, under 25%.
As for `CCc1ccc(OC)c(C2CCN([C@@H]3C[C@H]4CC[C@H]3C4)CC2)c1` [Compound 260], on M3 muscarinic receptor, the maximal response (Emax) was under 25% and the “M3 Activity” value is reported as “+ (activity was measured to be greater than 5.0 μM)”. At M1 muscarinic receptor, the Emax lay in the range of 25 to 100% and the “M1 Activity” value is “+++ (activity was measured to be less than 1.0 μM)”. On M4 muscarinic receptor, the Emax lay within 25 to 100% and the “M4 Activity” value is on record as “+++ (activity was measured to be less than 1.0 μM)”. At M2 muscarinic receptor, the maximum response (Emax) was under 25% and the “M2 Activity” value is on record as “+ (activity was measured to be greater than 5.0 μM)”.
Take `Cc1ccc(C(F)(F)F)cc1C1CCN(C2C[C@H]3CC[C@H]2C3)CC1` (stereo partly shown) [Compound 261]: on M3 muscarinic receptor, the maximum response (Emax) is under 25% and the “M3 Activity” value is “+ (activity was measured to be greater than 5.0 μM)”. Further, on M1 muscarinic receptor, the maximal effect (Emax) was 25 to 100% and the “M1 Activity” value was “+++ (activity was measured to be less than 1.0 μM)”. At M4 muscarinic receptor, the Emax lay within 25 to 100% and the “M4 Activity” value is reported as “++ (activity was measured to be from 1.0 μM to 5.0 μM)”. On M2 muscarinic receptor, the maximal effect (Emax) lay in the range of 25 to 100% and the “M2 Activity” value is given as “+ (activity was measured to be greater than 5.0 μM)”.
With `CCOC(=O)N1CCC(N2CCC(F)(c3cc(F)ccc3OC)CC2)CC1` [Compound 262], at M3 muscarinic receptor, the Emax was under 25% and the “M3 Activity” value is reported as “+ (activity was measured to be greater than 5.0 μM)”. On M1 muscarinic receptor, the Emax lay within 25 to 100% and the “M1 Activity” value is reported as “+++ (activity was measured to be less than 1.0 μM)”. In addition, at M4 muscarinic receptor, the maximal response (Emax) was in the range of 25 to 100% and the “M4 Activity” value is “+++ (activity was measured to be less than 1.0 μM)”. For the same compound, at M2 muscarinic receptor, the Emax was under 25% and the “M2 Activity” value is on record as “+ (activity was measured to be greater than 5.0 μM)”.
For the compound `COc1ccc(-c2ccc(CC#N)cc2)cc1C1CCN(C2CCOCC2)CC1` [Compound 263], at M3 muscarinic receptor, the Emax is under 25% and the “M3 Activity” value is listed as “+ (activity was measured to be greater than 5.0 μM)”. In addition, at M1 muscarinic receptor, the Emax is under 25% and the “M1 Activity” value was “+ (activity was measured to be greater than 5.0 μM)”. In addition, on M4 muscarinic receptor, the Emax is under 25% and the “M4 Activity” value is listed as “+ (activity was measured to be greater than 5.0 μM)”. For the same compound, at M2 muscarinic receptor, the Emax is under 25% and the “M2 Activity” value is given as “+ (activity was measured to be greater than 5.0 μM)”.
Take `CCOC(=O)N1CCC(CN2CCC(c3cc(C#N)ccc3OC)CC2)CC1` [Compound 264]: on M3 muscarinic receptor, the Emax is under 25% and the “M3 Activity” value is given as “+ (activity was measured to be greater than 5.0 μM)”. Further, on M1 muscarinic receptor, the maximal effect (Emax) is 25 to 100% and the “M1 Activity” value is on record as “+++ (activity was measured to be less than 1.0 μM)”. On M4 muscarinic receptor, the Emax is 25 to 100% and the “M4 Activity” value is “+++ (activity was measured to be less than 1.0 μM)”. On M2 muscarinic receptor, the Emax was under 25% and the “M2 Activity” value is “+ (activity was measured to be greater than 5.0 μM)”.
Regarding `COc1ccccc1C1CCN(C2CCC(C)C2)CC1` (stereo not shown) [Compound 265], on M3 muscarinic receptor, the Emax is under 25% and the “M3 Activity” value is “+ (activity was measured to be greater than 5.0 μM)”. For the same compound, on M1 muscarinic receptor, the Emax fell in the range of 25 to 100% and the “M1 Activity” value is recorded as “+ (activity was measured to be greater than 5.0 μM)”. For the same compound, at M4 muscarinic receptor, the Emax lay in the range of 25 to 100% and the “M4 Activity” value is “+++ (activity was measured to be less than 1.0 μM)”. At M2 muscarinic receptor, the maximal response (Emax) is under 25% and the “M2 Activity” value is “+ (activity was measured to be greater than 5.0 μM)”.
For the compound `COc1ccccc1C1CCN(C2CCN(C(C)=O)CC2)CC1` [Compound 266], at M3 muscarinic receptor, the maximal effect (Emax) is under 25% and the “M3 Activity” value was “+ (activity was measured to be greater than 5.0 μM)”. Besides, on M1 muscarinic receptor, the Emax is under 25% and the “M1 Activity” value is listed as “+ (activity was measured to be greater than 5.0 μM)”. For the same compound, on M4 muscarinic receptor, the Emax lay in the range of 25 to 100% and the “M4 Activity” value was “++ (activity was measured to be from 1.0 μM to 5.0 μM)”. In addition, at M2 muscarinic receptor, the Emax is under 25% and the “M2 Activity” value is recorded as “+ (activity was measured to be greater than 5.0 μM)”.
